Results: publication PMC3374801, “Artemisinin Inhibits Chloroplast Electron Transport Activity: Mode of Action” (PLoS ONE, 2012)
“Also recorded” adds a separate entry of the source.

Legend:
spinach thylakoids = test: In vitro effect of artemisinin on FeCN supported O2 evolution (electron transport) of isolated thylakoids; assay type: biochemical, spinach (Beta palonga); settings: for artemisinin-mediated inhibition of electron transport: 744 µM
Protocol: Thylakoids were isolated from spinach and rice leaves following with some modifications. Leaves were homogenized in cold grinding buffer [50 mM tricine-NaOH (pH 7.5), 400 mM sucrose, 5 mM MgCl2 and 5 mM KCl]. The homogenate was filtered through Miracloth and the filtrate was centrifuged at 5000×g for 5 min. The chloroplast pellet was washed in 5 mM tricine-NaOH (pH 7.5) buffer containing, 400 mM sucrose and 2 mM MgCl2 and centrifuged at 300×g for 1 min. The supernatant was re-centrifuged at 5000×g for 5 min. The pellet (thylakoids) was finally taken up in a minimal volume of suspending buffer [20 mM tricine-NaOH (pH 7.5), 100 mM sucrose and 5 mM MgCl2]. Chlorophyll concentration in methanolic extract was measured spectrophotometrically.
Photosystem II, PSI and whole chain (PSII plus PSI) catalyzed electron transport activities were measured as oxygen (O2) evolution or uptake in a Clarke type O2 electrode assembly (Hansatech) at 22±1°C using site-specific artificial electron acceptors, donors, and inhibitors, [26]. The light was rate-saturating (500 µE m^−2 s^−1). Phosphorylating electron transport was measured with addition of 1 mM ADP and 5 mM K2HPO4 (iP) to basal electron transport components (25 mM hepes-NaOH (pH-7.5), 100 mM sucrose, 5 mM MgCl2 and 20 µg Chl. ml^−1). NH4Cl and GS were used at a final concentration of 5 mM and 10 µM respectively as and when required. The whole chain electron flow was assayed in presence of 2 mM FeCN as terminal electron acceptor of PSI. pBQ and DQ (400 µM) were used to measure PSII catalyzed electron flow. To measure PSI catalyzed electron flow, DCIPH2 (1 mM DCIP plus 2 mM ascorbate) was used as electron donor to cytochrome b6/f region and 1 mM MV as transient electron acceptor. The PSI reaction mixture additionally contained 2 mM sodium azide (catalase inhibitor) and 10 µM DCMU (PSII inhibitor).

rice leaves [1] = test: Fast Chl. a (O-J-I-P) fluorescence transient in leaves of artemisinin sprayed plants; assay type: in vivo, Rice (Oryza sativa var. Safari)
Protocol: (§1) Twenty one day old rice plants were sprayed with artemisinin twice at a 24 h interval. One mililiter of 74.4 mM artemisinin in 1% (V/V) DMSO, 0.1% (V/V) TWEEN-20 was diluted 100 fold with water and used to treat 40 plants (∼1.86 µmol of artemisinin/plant). Control plants were sprayed with the same solution without artemisinin. The 4th (quaternary) leaf was harvested 20 h after the 2nd spray and used for all experiments. The individual effect of the surfactant and DMSO-plus-surfactant was first evaluated against water control. Since no effect was obtained with these variations, we have routinely used the DMSO plus the surfactant sprayed leaves as control against artemisinin treated leaves and in figures the same has been depicted as DMSO (control). The room temperature Chl. a fluorescence technique was used to study the photosynthetic activity in intact leaf samples. The fast Chl. a transients (O-J-I-P) in millisecond (ms) time span was studied with plant efficiency analyzer (Handy PEA fluorimeter) following Strasser et al., while the relative thylakoid electron transport, membrane energization and carbon fixation activities were evaluated from slow fluorescence transients, obtained using FMS2 instrument (Hansatech) as per the detail outlined in Baker. The readouts from Handy PEA were analyzed using biolyzerhp3 software.

rice leaves [2] = test: Slow Chl. a fluorescence kinetics in leaves of artemisinin sprayed plants; assay type: in vivo, Rice (Oryza sativa var. Safari); settings: dark adapted 20 min
Protocol: as §1

[3] = tested on: whole chain (H2O to FeCN) electron flow in thylakoids; test: Whole chain (H2O to FeCN) electron flow in thylakoids isolated from leaves of sprayed plants; assay type: in vivo, Rice (Oryza sativa var. Safari)
Protocol: (§2) Twenty one day old rice plants were sprayed with artemisinin twice at a 24 h interval. One mililiter of 74.4 mM artemisinin in 1% (V/V) DMSO, 0.1% (V/V) TWEEN-20 was diluted 100 fold with water and used to treat 40 plants (∼1.86 µmol of artemisinin/plant). Control plants were sprayed with the same solution without artemisinin. The 4th (quaternary) leaf was harvested 20 h after the 2nd spray and used for all experiments. The individual effect of the surfactant and DMSO-plus-surfactant was first evaluated against water control. […]
(§3) Thylakoids were isolated from spinach and rice leaves following with some modifications. […] Chlorophyll concentration in methanolic extract was measured spectrophotometrically.
(§4) Photosystem II, PSI and whole chain (PSII plus PSI) catalyzed electron transport activities were measured as oxygen (O2) evolution or uptake in a Clarke type O2 electrode assembly (Hansatech) at 22±1°C using site-specific artificial electron acceptors, donors, and inhibitors, [26]. […] Phosphorylating electron transport was measured with addition of 1 mM ADP and 5 mM K2HPO4 (iP) to basal electron transport components (25 mM hepes-NaOH (pH-7.5), 100 mM sucrose, 5 mM MgCl2 and 20 µg Chl. ml^−1). […]

PSII = target: T1, PSII (Oryza sativa subsp. japonica, UniProt P0C434); test: PSII (H2O to pBQ) catalyzed electron flow in thylakoids isolated from leaves of sprayed plants; assay type: in vivo, Rice (Oryza sativa var. Safari); settings: thylakoids of treated rice leaves
T1 construct: Thylakoids were isolated from spinach and rice leaves; from tissue; host or cells: thylakoid membranes from the 4th leaf of 21-day-old rice plants
Protocol: as §2, §3, §4

PSI = PSI (DCIPH2 to MV) catalyzed electron flow in thylakoids isolated from leaves of sprayed plants; assay type: in vivo, Rice (Oryza sativa var. Safari); settings: thylakoids of treated rice leaves
Protocol: as §2, §3, §4

[4] = tested on: PQH2 pool (PSII catalyzed electron flow from water to DQ); test: Kinetics of DQ supported electron transport rate in thylakoids from treated leaves; assay type: in vivo; settings: control versus treated thylakoids
Protocol: as §2, §3, §4

Chl. pigment synthesis = test: Chlorophyll quantification in sprayed plants; assay type: in vivo, Rice (Oryza sativa var. Safari); settings: treated versus control leaves
Protocol: Twenty one day old rice plants were sprayed with artemisinin twice at a 24 h interval. One mililiter of 74.4 mM artemisinin in 1% (V/V) DMSO, 0.1% (V/V) TWEEN-20 was diluted 100 fold with water and used to treat 40 plants (∼1.86 µmol of artemisinin/plant). Control plants were sprayed with the same solution without artemisinin. The 4th (quaternary) leaf was harvested 20 h after the 2nd spray and used for all experiments. The individual effect of the surfactant and DMSO-plus-surfactant was first evaluated against water control. Since no effect was obtained with these variations, we have routinely used the DMSO plus the surfactant sprayed leaves as control against artemisinin treated leaves and in figures the same has been depicted as DMSO (control). Thylakoids were isolated from spinach and rice leaves following with some modifications. Leaves were homogenized in cold grinding buffer [50 mM tricine-NaOH (pH 7.5), 400 mM sucrose, 5 mM MgCl2 and 5 mM KCl]. The homogenate was filtered through Miracloth and the filtrate was centrifuged at 5000×g for 5 min. […] Chlorophyll concentration in methanolic extract was measured spectrophotometrically. Supplementary file pone.0038942.s002.doc: Figure S2 Chlorophyll quantification in plants sprayed with DMSO and artemisinin. […]

rice plant = test: Long term effect of artemisinin administration to rice plant; assay type: in vivo; settings: 5 consecutive alternate day sprays
Protocol: Supplementary file pone.0038942.s005.doc: Figure S5 Long term effect of artemisinin administration to rice plant. The plants were treated with artemisinin for 5 consecutive alternate day sprays. […] (DOC) Click here for additional data file.

[5] = tested on: lettuce and annual wormwood; set-up: method as in earlier work; settings: 33 µM; cited from earlier work
[6] = tested on: lettuce, redroot pigweed, pitted morning glory, annual wormwood and common purslane; set-up: method as in earlier work; settings: 33 µM; cited from earlier work
yeast cells = tested on: yeast cells; set-up: method as in PMID 16170412; settings: 80 µM; cited from earlier work

C[C@@H]1CC[C@H]2[C@@H](C)C(=O)O[C@@H]3O[C@@]4(C)CC[C@@H]1[C@]32OO4 [Artemisinin]
inhibition of control activity (FeCN supported electron transport / O2 evolution) (spinach thylakoids; 744 µM artemisinin, basal (loosely coupled) thylakoids, relative to DMSO control): 65–70% | artemisinin-mediated inhibition of electron transport (spinach thylakoids; phosphorylating condition (plus ADP and iP)): 45–50% | artemisinin-mediated inhibition of electron transport (spinach thylakoids; phosphorylating condition, in presence of NH4Cl): 15–20% | artemisinin-mediated inhibition of electron transport (spinach thylakoids; phosphorylating condition, with GS): 20–25% | effect on electron flow from water to QA (rice leaves [1]; from DCMU (20 µM) sensitivity of the fluorescence induction curves): insensitive | effect on O-J-I-P fluorescence transient (rice leaves [1]; leaves of sprayed rice plants): disappearance of the FI – FP transient | Rfd (fluorescence decline ratio from 'p' to 't' level) (rice leaves [2]): 0.08±0.006 | reduction of FeCN supported whole chain electron transport rate as compared to control ([3]; thylakoids of treated rice leaves (~1.86 µmol/plant)): 80–85% | inhibitory affect in loosely coupled (basal) versus chemically uncoupled (NH4Cl or GS) thylakoids ([3]; thylakoids of treated rice leaves, FeCN as acceptor): persistent to a comparable extent | reduction in rate of pBQ supported PSII catalyzed electron transport (PSII): 65–70% | reduction of PSI catalyzed electron flow from DCIPH2 to MV as compared to control (PSI): 10–15% | DQ supported electron transport rate, times higher in the absence of artemisinin [4]: 5 times | effect on Chl. pigment synthesis (Chl. concentration) (Chl. pigment synthesis): no affect on the Chl. pigment synthesis | long term effect on plants (rice plant): death of plant; also recorded: complete death of the plants | effect on germination [5]: inhibited the germination | effect on growth of roots and shoots [6]: inhibited | effect on growth of yeast cells (yeast cells): arrests the growth
